One assay has as its target Dipeptidyl peptidase 4 (Homo sapiens, UniProt P27487). Kind of assay: Inhibition of DPP4.
In the next assay the target is Dipeptidyl peptidase 8 (Homo sapiens, UniProt Q6V1X1). In words: Inhibition of DPP8.
The target of a further assay is Dipeptidyl peptidase 9 (Homo sapiens, UniProt Q86TI2). In words: Inhibition of DPP9.
A further assay has as its target Dipeptidyl peptidase 2 (Homo sapiens, UniProt Q9UHL4). Kind of assay: Inhibition of DPP2.

Molecules are shown by their SMILES. The source made the active and inactive calls. The rule behind the calls is not given here.

Chain of Dipeptidyl peptidase 8 (Q6V1X1 whole entry): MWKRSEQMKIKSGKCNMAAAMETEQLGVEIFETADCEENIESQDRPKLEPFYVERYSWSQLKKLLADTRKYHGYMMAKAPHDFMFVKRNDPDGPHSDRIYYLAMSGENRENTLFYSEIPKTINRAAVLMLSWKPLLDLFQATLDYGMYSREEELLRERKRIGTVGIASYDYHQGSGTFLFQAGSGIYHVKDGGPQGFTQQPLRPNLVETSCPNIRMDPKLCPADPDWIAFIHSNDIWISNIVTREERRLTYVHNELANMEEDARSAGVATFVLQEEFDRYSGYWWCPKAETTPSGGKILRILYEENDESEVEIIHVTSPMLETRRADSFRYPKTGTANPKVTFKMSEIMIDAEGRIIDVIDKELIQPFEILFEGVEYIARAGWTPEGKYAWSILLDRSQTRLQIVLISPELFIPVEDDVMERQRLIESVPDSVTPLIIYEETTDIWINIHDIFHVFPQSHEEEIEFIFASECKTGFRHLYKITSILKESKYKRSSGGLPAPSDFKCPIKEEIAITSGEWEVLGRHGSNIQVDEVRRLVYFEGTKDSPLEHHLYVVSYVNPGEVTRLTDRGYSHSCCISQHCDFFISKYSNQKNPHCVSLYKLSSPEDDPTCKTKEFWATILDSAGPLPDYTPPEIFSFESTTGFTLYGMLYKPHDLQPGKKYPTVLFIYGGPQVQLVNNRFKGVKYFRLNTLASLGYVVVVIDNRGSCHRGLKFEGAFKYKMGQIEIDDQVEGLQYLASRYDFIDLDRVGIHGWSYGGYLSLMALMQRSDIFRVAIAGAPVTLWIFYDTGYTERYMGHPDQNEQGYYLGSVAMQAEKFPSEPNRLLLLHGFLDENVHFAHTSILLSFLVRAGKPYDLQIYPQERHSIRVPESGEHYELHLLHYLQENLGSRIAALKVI
Chain of Dipeptidyl peptidase 9 (Q86TI2 whole entry): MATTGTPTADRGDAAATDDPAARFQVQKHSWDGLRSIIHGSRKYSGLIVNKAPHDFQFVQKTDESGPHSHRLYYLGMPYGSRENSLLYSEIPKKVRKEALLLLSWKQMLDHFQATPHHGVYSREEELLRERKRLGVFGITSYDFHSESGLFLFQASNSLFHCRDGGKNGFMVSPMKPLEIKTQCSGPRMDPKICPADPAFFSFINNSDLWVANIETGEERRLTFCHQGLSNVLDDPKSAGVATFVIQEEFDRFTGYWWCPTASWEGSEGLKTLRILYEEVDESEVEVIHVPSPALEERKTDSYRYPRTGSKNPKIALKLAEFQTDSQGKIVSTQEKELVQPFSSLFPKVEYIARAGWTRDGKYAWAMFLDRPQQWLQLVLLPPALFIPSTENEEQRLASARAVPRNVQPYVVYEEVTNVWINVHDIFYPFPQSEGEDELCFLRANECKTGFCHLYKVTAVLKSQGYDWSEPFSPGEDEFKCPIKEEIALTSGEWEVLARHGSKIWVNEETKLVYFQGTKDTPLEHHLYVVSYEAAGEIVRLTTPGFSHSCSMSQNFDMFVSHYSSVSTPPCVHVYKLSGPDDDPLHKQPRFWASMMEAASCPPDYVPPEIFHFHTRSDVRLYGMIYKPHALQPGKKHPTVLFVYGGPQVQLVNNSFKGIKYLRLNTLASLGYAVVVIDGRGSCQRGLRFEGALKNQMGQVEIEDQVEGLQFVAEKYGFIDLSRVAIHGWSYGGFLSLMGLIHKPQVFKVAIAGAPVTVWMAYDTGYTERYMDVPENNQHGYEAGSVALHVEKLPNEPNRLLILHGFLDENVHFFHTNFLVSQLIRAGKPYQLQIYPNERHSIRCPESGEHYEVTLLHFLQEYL

As for `NCCCC[C@H](N)C(=O)N1Cc2ccccc2C1`, at Dipeptidyl peptidase 4, half-maximal inhibition (IC50) was put at 161 µM.

As for `CC[C@H](C)[C@H](N)C(=O)N1Cc2ccc(I)cc2C1`, the IC50 (usually the point on the concentration scale where inhibition reaches its midpoint) was > 25 µM against Dipeptidyl peptidase 8, > 50 µM against Dipeptidyl peptidase 9, 2.6 µM against Dipeptidyl peptidase 2 and > 100 µM against Dipeptidyl peptidase 4.

For `O=C([C@@H]1C[C@@H](N(Cc2ccccc2)Cc2ccccc2)CN1)N1Cc2ccccc2C1`, the figures for the IC50 at Dipeptidyl peptidase 9, against Dipeptidyl peptidase 2 and against Dipeptidyl peptidase 4 were > 25 µM, 4.5 µM and > 500 µM, respectively.

`CC[C@H](C)[C@H](N)C(=O)N1Cc2cccc(F)c2C1`: the IC50 at Dipeptidyl peptidase 4 was > 100 µM.

As for `N[C@@H](CCCCNCc1ccccc1)C(=O)N1Cc2ccccc2C1`, the concentration for half-maximal inhibition (IC50) on Dipeptidyl peptidase 4 is > 50 µM.

Turning to `CC[C@H](C)[C@H](N)C(=O)N1Cc2cccc(C)c2C1`, the IC50 at Dipeptidyl peptidase 8, against Dipeptidyl peptidase 9, against Dipeptidyl peptidase 2 and on Dipeptidyl peptidase 4 was > 100 µM in each case.

Take `CC[C@H](C)[C@H](N)C(=O)N1Cc2ccc([N+](=O)[O-])cc2C1`: the IC50 on Dipeptidyl peptidase 8 is > 50 µM; against Dipeptidyl peptidase 9, > 25 µM; at Dipeptidyl peptidase 2 it was 66 µM; on Dipeptidyl peptidase 4, > 50 µM.

For `O=C([C@@H]1C[C@@H](NCc2ccccc2)CN1)N1Cc2ccccc2C1`, the IC50 against Dipeptidyl peptidase 4 was > 1000 µM.

For `CC[C@@H](C)[C@H](N)C(=O)N1Cc2ccc(C(F)(F)F)cc2C1`, the IC50 at Dipeptidyl peptidase 8 is > 100 µM; against Dipeptidyl peptidase 9 it was > 100 µM; against Dipeptidyl peptidase 2, 12.6 µM; against Dipeptidyl peptidase 4 it was > 100 µM.

As to `N[C@@H](CCCCN(Cc1ccccc1)Cc1ccccc1)C(=O)N1Cc2ccccc2C1`, the IC50 at Dipeptidyl peptidase 4 is > 62.5 µM.

`N[C@@H](CCCCNc1ccc2ccccc2c1)C(=O)N1Cc2ccccc2C1`: at Dipeptidyl peptidase 4, the IC50 was 178 µM.

`N[C@@H](CCCCN(c1ccc2ccccc2c1)c1ccc2ccccc2c1)C(=O)N1Cc2ccccc2C1`: the IC50 on Dipeptidyl peptidase 4 was > 31.2 µM.

As for `O=C([C@@H]1C[C@H](N(c2ccc3ccccc3c2)c2ccc3ccccc3c2)CN1)N1Cc2ccccc2C1`, the IC50 at Dipeptidyl peptidase 2 was > 100 µM.

Take `CC[C@@H](C)[C@H](N)C(=O)N1Cc2ccc(C)cc2C1`: the IC50 on Dipeptidyl peptidase 4 was > 100 µM.

Regarding `CC[C@H](C)[C@H](N)C(=O)N1Cc2ccc(N=[N+]=[N-])cc2C1`, the IC50 is > 100 µM against Dipeptidyl peptidase 8, > 50 µM on Dipeptidyl peptidase 2 and > 100 µM against Dipeptidyl peptidase 4.

Consider `CC[C@H](C)[C@H](N)C(=O)N1Cc2ccc(C(C)(C)C)cc2C1`, for which the IC50 at Dipeptidyl peptidase 8, on Dipeptidyl peptidase 9, against Dipeptidyl peptidase 2 and against Dipeptidyl peptidase 4 was > 100 µM throughout.

As for `N[C@@H](CCCCNC(=O)OCc1ccccc1)C(=O)N1Cc2ccccc2C1`, the values for the IC50 at Dipeptidyl peptidase 2 and at Dipeptidyl peptidase 4 were 2.5 µM and 245 µM, respectively.

Consider `O=C([C@@H]1C[C@H](N(c2cccc3ccccc23)c2cccc3ccccc23)CN1)N1Cc2ccccc2C1`, for which, at Dipeptidyl peptidase 4, the result was inactive.

For the compound `CC[C@H](C)[C@H](N)C(=O)N1Cc2cccnc2C1`, the IC50 against Dipeptidyl peptidase 2 and at Dipeptidyl peptidase 4 was > 100 µM each time.

Take `O=C([C@@H]1C[C@@H](Nc2ccc3ccccc3c2)CN1)N1Cc2ccccc2C1`: the IC50 on Dipeptidyl peptidase 4 was > 250 µM.

Turning to `O=C([C@@H]1C[C@H](NCc2ccccc2)CN1)N1Cc2ccccc2C1`, on Dipeptidyl peptidase 4, the IC50 is > 250 µM.

For `CC[C@H](C)[C@H](N)C(=O)N1Cc2ccc(C)cc2C1`, at Dipeptidyl peptidase 4, the IC50 was > 100 µM.

As to `O=C([C@@H]1C[C@H](Nc2ccc3ccccc3c2)CN1)N1Cc2ccccc2C1`, at Dipeptidyl peptidase 4, the IC50 was > 100 µM.

As for `CC[C@@H](C)[C@H](N)C(=O)N1Cc2cccc(F)c2C1`, the IC50 at Dipeptidyl peptidase 4 is > 100 µM.

As to `CC[C@H](C)[C@H](N)C(=O)N1Cc2ccc(C(F)(F)F)cc2C1`, the 50% inhibitory concentration (IC50) was > 100 µM against Dipeptidyl peptidase 8, > 100 µM at Dipeptidyl peptidase 9, 13 µM at Dipeptidyl peptidase 2 and > 100 µM on Dipeptidyl peptidase 4.

Take `CC[C@H](C)[C@H](N)C(=O)N1Cc2ccc(Br)cc2C1`: at Dipeptidyl peptidase 4, the IC50 was > 100 µM.

As for `N[C@H]1CN[C@H](C(=O)N2Cc3ccccc3C2)C1`, the half-inhibitory concentration (IC50) on Dipeptidyl peptidase 4 was > 500 µM.

In turn, `O=C([C@@H]1C[C@H](Nc2cccc3ccccc23)CN1)N1Cc2ccccc2C1` yielded an IC50 at Dipeptidyl peptidase 4 of 4.97 µM.
